Converted amounts (≈) assume the structure as drawn. One block for each molecule: values may come before it.
Assays:
Test in all cases: ≥ marks a high value that may be exact or a test limit, other limits are often not marked, values filed in µg/mL are converted to µM
Bacillus subtilis 168 = test system: Bacillus subtilis 168
[1] = test system: Candida albicans F7-39/IDE99
Escherichia coli B = test system: Escherichia coli B
[2] = test system: Micrococcus luteus CCM 144
[3] = test system: Pseudomonas aeruginosa ATCC 27853
Pseudomonas aeruginosa = test system: Pseudomonas aeruginosa
Staphylococcus aureus 1 = test system: Staphylococcus aureus 1
[4] = test system: Staphylococcus aureus ATCC 43300
Staphylococcus aureus = test system: Staphylococcus aureus
[5] = test system: Staphylococcus epidermidis
[6] = test system: Cronobacter muytjensii ATCC 51329
[7] = test system: Cronobacter sakazakii ATCC BAA-894
[8] = test system: Cronobacter sakazakii DPC 6440
[9] = test system: Cronobacter sakazakii DSM 4485
[10] = test system: Escherichia coli NCIMB 11843
[11] = test system: Klebsiella pneumoniae NCIMB 13218
[12] = test system: Pseudomonas fluorescens NCIMB 9046
[13] = test system: Salmonella enterica subsp. enterica serovar Typhimurium LT2
[14] = test system: Staphylococcus aureus NCTC 8325-4
[15] = test system: Staphylococcus aureus Newman
[16] = test system: Staphylococcus aureus RF122
[17] = test system: Staphylococcus aureus RN4220
[18] = test system: Staphylococcus aureus SA113
Bacillus subtilis = test system: Bacillus subtilis
Escherichia coli = test system: Escherichia coli
Proteus vulgaris = test system: Proteus vulgaris
Salmonella typhimurium = test system: Salmonella typhimurium
Streptococcus pyogenes = test system: Streptococcus pyogenes
Proteus mirabilis = test system: Proteus mirabilis
Bacillus cereus AS1.126 = test system: Bacillus cereus AS1.126
[19] = test system: Enterobacter cloacae CGMCC 1.58
[20] = test system: Enterococcus faecalis CGMCC 1.595
[21] = test system: Enterococcus faecium CGMCC 1.2334
Escherichia coli AS1.349 = test system: Escherichia coli AS1.349
[22] = test system: Klebsiella aerogenes CGMCC 1.876
[23] = test system: Klebsiella pneumoniae subsp. pneumoniae CGMCC 1.176
[24] = test system: Lactococcus lactis AS1.1690
[25] = test system: Pseudomonas aeruginosa CGMCC 1.860
[26] = test system: Staphylococcus aureus AS1.72

MIC (Bacillus subtilis 168): 7 µM (≈ 12.8 µg/mL) | MIC [1]: 11 µM (≈ 20.1 µg/mL) | MIC (Escherichia coli B): 7.5 µM (≈ 13.7 µg/mL) | MIC [2]: 3 µM (≈ 5.48 µg/mL) | MIC [3]: 5 µM (≈ 9.13 µg/mL) | MIC (Pseudomonas aeruginosa): 7.1 µM (≈ 13 µg/mL) | MIC (Staphylococcus aureus 1): 7.8 µM (≈ 14.2 µg/mL) | MIC [4]: 20 µM (≈ 36.5 µg/mL) | MIC (Staphylococcus aureus): 20 µM (≈ 36.5 µg/mL) | MIC [5]: 2.7 µM (≈ 4.93 µg/mL)
SMILES: CC[C@H](C)[C@H](NC(=O)CN)C(=O)N[C@@H](CC(C)C)C(=O)N[C@@H](CO)C(=O)N[C@@H](CO)C(=O)N[C@@H](CC(C)C)C(=O)N[C@@H](CC(C)C)C(=O)N[C@@H](CCCCN)C(=O)N[C@@H](CCCCN)C(=O)N[C@@H](Cc1c[nH]c2ccccc12)C(=O)N[C@@H](CCCCN)C(=O)N[C@@H](CCCCN)C(=O)N[C@H](C(=O)N[C@H](C(=O)N[C@@H](C)C(=O)N[C@@H](CCCCN)C(N)=O)[C@@H](C)CC)[C@@H](C)CC [GILSSLLKKWKKIIAK]

MIC [6]: ≥ 1250 µM | MIC [7]: ≥ 1250 µM | MIC [8]: ≥ 1250 µM | MIC [9]: ≥ 625 µM | MIC [10]: ≥ 2500 µM | MIC [11]: ≥ 2500 µM | MIC [3]: 32 µM (≈ 28.4 µg/mL) | MIC [12]: ≥ 1250 µM | MIC [13]: ≥ 2500 µM | MIC [14]: ≥ 625 µM | MIC [15]: ≥ 1250 µM | MIC [16]: ≥ 1250 µM | MIC [17]: ≥ 1250 µM | MIC [18]: ≥ 1250 µM
SMILES: CC(C)C[C@H](NC(=O)[C@@H](N)C(C)C)C(=O)N[C@@H](CC(N)=O)C(=O)N[C@@H](CCC(=O)O)C(=O)N[C@@H](CC(N)=O)C(=O)N[C@@H](C)C(=O)N[C@@H](C)C(=O)N[C@@H](CCCN=C(N)N)C(=O)O [VLNENAAR]

MIC (Bacillus subtilis 168): 7 µM (≈ 12.8 µg/mL) | MIC [1]: 11 µM (≈ 20.1 µg/mL) | MIC (Escherichia coli B): 3.4 µM (≈ 6.21 µg/mL) | MIC [2]: 3 µM (≈ 5.48 µg/mL) | MIC [3]: 5.3 µM (≈ 9.67 µg/mL) | MIC (Pseudomonas aeruginosa): 8.8 µM (≈ 16.1 µg/mL) | MIC (Staphylococcus aureus 1): 2 µM (≈ 3.65 µg/mL) | MIC [4]: 5.3 µM (≈ 9.67 µg/mL) | MIC (Staphylococcus aureus): 5 µM (≈ 9.13 µg/mL) | MIC [5]: 2 µM (≈ 3.65 µg/mL)
SMILES: CC[C@H](C)[C@H](NC(=O)CN)C(=O)N[C@@H](CC(C)C)C(=O)N[C@@H](CO)C(=O)N[C@@H](CO)C(=O)N[C@@H](CC(C)C)C(=O)N[C@@H](Cc1c[nH]c2ccccc12)C(=O)N[C@@H](CCCCN)C(=O)N[C@@H](CCCCN)C(=O)N[C@@H](CC(C)C)C(=O)N[C@@H](CCCCN)C(=O)N[C@@H](CCCCN)C(=O)N[C@H](C(=O)N[C@H](C(=O)N[C@@H](C)C(=O)N[C@@H](CCCCN)C(N)=O)[C@@H](C)CC)[C@@H](C)CC [GILSSLWKKLKKIIAK]

MIC (Bacillus subtilis): ≥ 64 µM | MIC (Escherichia coli): 16 µM (≈ 29.2 µg/mL) | MIC (Proteus vulgaris): ≥ 64 µM | MIC (Pseudomonas aeruginosa): 64 µM (≈ 117 µg/mL) | MIC (Salmonella typhimurium): 0.5 µM (≈ 0.912 µg/mL) | MIC [5]: ≥ 64 µM | MIC (Streptococcus pyogenes): ≥ 64 µM
SMILES: CC[C@H](C)[C@H](NC(=O)[C@H](Cc1ccc(O)cc1)NC(=O)[C@@H](NC(=O)[C@@H]1CCCN1C(=O)[C@@H](N)CCCN=C(N)N)C(C)C)C(=O)N1CCC[C@H]1C(=O)N[C@@H](CCC(N)=O)C(=O)N1CCC[C@H]1C(=O)N[C@@H](CCCN=C(N)N)C(=O)N1CCC[C@H]1C(=O)N1CCC[C@H]1C(=O)N[C@@H](Cc1cnc[nH]1)C(=O)N1CCC[C@H]1C(=O)N[C@@H](CCCN=C(N)N)C(=O)N[C@@H](CC(C)C)C(=O)O [RPVYIPQPRPPHPRL]

MIC (Proteus mirabilis): 31.8 µM (≈ 64 µg/mL) | MIC (Pseudomonas aeruginosa): > 31.8 µM | MIC (Staphylococcus aureus): 4.47 µM (≈ 9 µg/mL) | MIC (Streptococcus pyogenes): 0.124 µM (≈ 0.25 µg/mL)
SMILES: NC(N)=NCCC[C@H](NC(=O)[C@H](CCCN=C(N)N)NC(=O)[C@H](CCCN=C(N)N)NC(=O)[C@H](CCCN=C(N)N)NC(=O)[C@H](CCCN=C(N)N)NC(=O)[C@H](CCCN=C(N)N)NC(=O)[C@H](CCCN=C(N)N)NC(=O)[C@H](CCCN=C(N)N)NC(=O)[C@H](Cc1c[nH]c2ccccc12)NC(=O)[C@H](Cc1c[nH]c2ccccc12)NC(=O)[C@H](Cc1c[nH]c2ccccc12)NC(=O)[C@@H](N)Cc1c[nH]c2ccccc12)C(=O)O [WWWWRRRRRRRR]

MIC (Bacillus cereus AS1.126): 1.56 µM (≈ 1.81 µg/mL) | MIC [19]: ≥ 100 µM | MIC [20]: 25 µM (≈ 29.1 µg/mL) | MIC [21]: 25 µM (≈ 29.1 µg/mL) | MIC (Escherichia coli AS1.349): 25 µM (≈ 29.1 µg/mL) | MIC [22]: ≥ 100 µM | MIC [23]: ≥ 100 µM | MIC [24]: 12.5 µM (≈ 14.5 µg/mL) | MIC [25]: 12.5 µM (≈ 14.5 µg/mL) | MIC [26]: ≥ 50 µM
SMILES: NC(N)=NCCC[C@H](NC(=O)[C@H](CCCN=C(N)N)NC(=O)[C@H](Cc1c[nH]c2ccccc12)NC(=O)[C@H](Cc1ccccc1)NC(=O)[C@H](CCCN=C(N)N)NC(=O)[C@H](CCCN=C(N)N)NC(=O)[C@@H](N)Cc1c[nH]c2ccccc12)C(=O)O [WRRFWRR]

MIC (Bacillus subtilis): ≥ 64 µM | MIC (Escherichia coli): 64 µM (≈ 55.8 µg/mL) | MIC (Proteus vulgaris): ≥ 64 µM | MIC (Pseudomonas aeruginosa): 64 µM (≈ 55.8 µg/mL) | MIC (Salmonella typhimurium): ≥ 64 µM | MIC [5]: ≥ 64 µM | MIC (Streptococcus pyogenes): ≥ 64 µM
SMILES: CC(C)C[C@H](NC(=O)[C@H](CCCN=C(N)N)NC(=O)[C@@H]1CCCN1C(=O)[C@H](Cc1cnc[nH]1)NC(=O)[C@@H]1CCCN1C(=O)[C@@H]1CCCN1C(=O)[C@@H](N)CCCN=C(N)N)C(=O)O [RPPHPRL]

MIC [6]: ≥ 2500 µM | MIC [7]: ≥ 625 µM | MIC [8]: ≥ 625 µM | MIC [9]: ≥ 625 µM | MIC [10]: ≥ 1250 µM | MIC [11]: ≥ 1250 µM | MIC [12]: ≥ 1250 µM | MIC [13]: ≥ 2500 µM | MIC [14]: ≥ 1250 µM | MIC [15]: ≥ 1250 µM | MIC [16]: ≥ 1250 µM | MIC [17]: ≥ 1250 µM | MIC [18]: ≥ 625 µM
SMILES: CC[C@H](C)[C@H](N)C(=O)N[C@@H](CCCCN)C(=O)N[C@@H](Cc1cnc[nH]1)C(=O)N[C@@H](CCC(N)=O)C(=O)NCC(=O)N[C@@H](CC(C)C)C(=O)N1CCC[C@H]1C(=O)N[C@@H](CCC(N)=O)C(=O)N[C@@H](CCC(=O)O)C(=O)N[C@@H](CC(=O)O)C(=O)O [IKHQGLPQED]

— DBAASP
